According to article PMC4791575 (ACS Infectious Diseases, 2016):
Like-named read-outs stand apart in the source and are kept apart here.

Tests used:
[1] = tested on: T. brucei cells; assay: microbe, parasite or virus in culture; assay type: cell-based, Trypanosoma brucei; settings: for EC50: Trypanosoma brucei, read-out: T. brucei pEC50 (within 46%) (converted); for T. brucei pEC50 (within 46%): purchased inhibitors, Table 3
[2] = tested on: HepG2 cells; assay: HepG2 host cell toxicity assay; assay type: cell-based; settings: HepG2, purchased inhibitors, Table 3
[3] = tested on: L. major promastigotes; assay: microbe, parasite or virus in culture; assay type: cell-based, Leishmania major; settings: for EC50: Leishmania major, read-out: Leishmania Promast pEC50 (converted); for Leishmania Promast pEC50: L. major promastigotes
[4] = tested on: L. major intracellular amastigotes; assay: microbe, parasite or virus in culture; assay type: cell-based, Leishmania major; settings: for EC50: Leishmania major, read-out: Leishmania Amast pEC50 (converted); for Leishmania Amast pEC50: L. major intracellular amastigotes
[5] = tested on: T. cruzi intracellular amastigotes (Tulahuen strain); assay: microbe, parasite or virus in culture; assay type: cell-based, Trypanosoma cruzi; settings: for EC50: Trypanosoma cruzi, TULAHUEN, read-out: T. cruzi pEC50 (μM) (within 21%) (converted); for T. cruzi pEC50 (within 21%): intracellular amastigotes, Tulahuen strain
[6] = tested on: P. falciparum D6; assay: microbe, parasite or virus in culture; assay type: cell-based, Plasmodium falciparum; settings: for EC50: Plasmodium falciparum, D6, read-out: P. falciparum D6 pEC50 (converted); for P. falciparum D6 pEC50: D6 strain
[7] = tested on: P. falciparum W2; assay: microbe, parasite or virus in culture; assay type: cell-based, Plasmodium falciparum; settings: for EC50: Plasmodium falciparum, W2, read-out: P. falciparum W2 pEC50 (converted)
[8] = tested on: P. falciparum C235; assay: microbe, parasite or virus in culture; assay type: cell-based, Plasmodium falciparum; settings: for EC50: Plasmodium falciparum, read-out: P. falciparum C235 pEC50 (converted)
[9] = tested on: 3T3; assay: 3T3 host cell toxicity; assay type: cell-based
[10] = HAT patients; cited from earlier work

Row | SMILES | T. brucei proliferation activity (in words; active = pEC50 ≥ 6) [1] | EC50 [1] [nM] | host cell tox HepG2 pTC50 [2] | EC50 [3] [nM] | EC50 [4] [nM] | EC50 [5] [µM] | EC50 [6] [nM] | EC50 [7] [nM] | EC50 [8] [nM] | host cell tox 3T3 pTC50 [9] | T. brucei proliferation activity (in words; active = pEC50 ≥ 6) ([1]; listed as NVP-TAE684) | T. brucei pEC50 (within 46%) [1] | Leishmania Promast pEC50 [3] | Leishmania Amast pEC50 [4] | T. cruzi pEC50 (within 21%) [5] | P. falciparum D6 pEC50 [6] | P. falciparum W2 pEC50 [7] | P. falciparum C235 pEC50 [8] | mortality rate of melarsoprol treatment [10] [%]
1 | C[C@@H](Oc1cc(-c2cnn(C3CCNCC3)c2)cnc1N)c1c(Cl)ccc(F)c1Cl [NEU-838, crizotinib] | potent T. brucei proliferation inhibitors | 398 | 5.4 | 631 | 1580 | 7.94 | 794 | 39.8 | 100 | 4.8 |  |  |  |  |  |  |  |  | 
2 | COc1cc(N2CCC(N3CCN(C)CC3)CC2)ccc1Nc1ncc(Cl)c(Nc2ccccc2S(=O)(=O)C(C)C)n1 [NEU-844, TAE684] |  | 100 | 5.3 | 316 | 1260 | 5.01 | 501 | 398 | 501 | 4.6 | potent T. brucei proliferation inhibitors |  |  |  |  |  |  |  | 
3 | Nc1ncnc2c1c(-c1cccc(OCc3ccccc3)c1)cn2[C@H]1C[C@@H](CN2CCC2)C1 [NEU-967, NVP-AEW5414] |  | 2000 | 5.5 | 100 | 3980 | 3.98 | 1260 | 1000 | 1260 | 4.8 |  |  |  |  |  |  |  |  | 
4 | CCCCOc1c(C(=O)c2c(F)cc(C)cc2F)c[nH]c2nncc1-2 [NEU-968, BMS-2652465] |  | 501 | <4.4 | 251 | > 15800 | > 50.1 | 15800 | 10000 | 12600 | <4 |  |  |  |  |  |  |  |  | 
5 | CNC(=O)c1nn(C)c2c1C(C)(C)Cc1cnc(Nc3ccc(N4CCN(C)CC4)cc3)nc1-2 [NEU-969, PHA-8481256] |  | 25.1 | 5.0 | 316 | 5010 | 0.0398 | 6310 | 7940 | 6310 | <4 |  |  |  |  |  |  |  |  | 
6 | CCc1cc(Nc2nccc(-c3c(-c4ccc(OC)c(C(=O)Nc5c(F)cccc5F)c4)nc4ccccn34)n2)c(OC)cc1N1CCC(N2CCN(S(C)(=O)=O)CC2)CC1 [NEU-970, GSK1904529A7] |  |  | <4.4 |  |  |  |  |  |  | <4 |  | 5.9 | <4.9 | 5.5 | < 4.3 | 6.8 | 7.0 | 6.9 | 
7 | Nc1nc(Nc2ccc(S(N)(=O)=O)cc2)nn1C(=O)c1c(F)cccc1F [NEU-971, JNJ-77066218] |  | 316 | 5.2 | > 25100 | > 15800 | > 50.1 | 2000 | 1000 | 1260 | <4 |  |  |  |  |  |  |  |  | 
8 | COc1cc(OC)c(/C=C/S(=O)(=O)Cc2ccc(OC)c(NCC(=O)O)c2)c(OC)c1 [NEU-973, ON-019109] |  | > 3160 | <4.4 | > 25100 | > 15800 | > 50.1 | > 20000 | > 20000 | > 20000 | <4 |  |  |  |  |  |  |  |  | 
9 | CCc1cc2c(cc1N1CCC(N3CCOCC3)CC1)C(C)(C)c1[nH]c3cc(C#N)ccc3c1C2=O [NEU-974, CH542480210] |  | > 3160 | <4.4 | 126 | > 15800 | > 50.1 | 3980 | > 20000 | > 20000 | <4 |  |  |  |  |  |  |  |  | 
10 | CCc1cnn2c(NCc3ccc[n+]([O-])c3)cc(N3CCCC[C@H]3CCO)nc12 [NEU-975, dinaciclib] |  |  | <4.4 |  |  |  |  |  |  | <4 |  |  |  |  |  |  |  |  | 
11 | C[C@]1(O)C[C@@H](c2nc(-c3ccc4ccc(-c5ccccc5)nc4c3)c3c(N)nccn32)C1 [NEU-976, linsitinib] |  | > 3160 | 4.5 | 7940 | > 15800 | 10 | 501 |  | 501 | <4 |  |  |  |  |  |  |  |  | 
12 | CC[C@H](CO)Nc1nc(NCc2ccccc2)c2ncn(C(C)C)c2n1 [NEU-977, roscovitine] |  |  | 4.5 |  |  |  |  |  |  | <4 |  |  |  |  |  |  |  |  | 
13 | Nc1nc(NCCNc2ncc(-c3ncc[nH]3)c(-c3ccc(Cl)cc3Cl)n2)ccc1[N+](=O)[O-] [NEU-978, CHIR-9801414] |  |  | 4.8 |  |  |  |  |  |  | <4 |  | <5.5 | 5.2 | <4.8 | < 4.3 | <4.7 | <4.7 | <4.7 | 
14 | CC[C@@H]1C(=O)N(C)c2cnc(Nc3ccc(C(=O)N[C@H]4CC[C@H](N5CCN(CC6CC6)CC5)CC4)cc3OC)nc2N1C(C)C [NEU-979, volasertib] |  | > 3160 | 5.5 | 1580 | 7940 | 12.6 | 158 | 158 | 158 | 4.6 |  |  |  |  |  |  |  |  | 
15 | CC[C@@H]1C(=O)N(C)c2cnc(Nc3ccc(C(=O)NC4CCN(C)CC4)cc3OC)nc2N1C1CCCC1 [NEU-980, BI 253616] |  | 631 | 5.6 | 3980 | 7940 | 20 | 20 | 10 | 12.6 | 4.5 |  |  |  |  |  |  |  |  | 
16 | O=C(NC1CCNCC1)c1n[nH]cc1NC(=O)c1c(Cl)cccc1Cl [NEU-982, AT751918] |  | 316 | <4.4 | > 25100 | > 15800 | 1.26 | 1260 | 794 | 316 | <4 |  |  |  |  |  |  |  |  | 
17 | CC(C)(C)c1cnc(CSc2cnc(NC(=O)C3CCNCC3)s2)o1 [NEU-984, SNS-03219, 20] |  | 126 | <4.4 | > 25100 | > 15800 | > 50.1 | 5010 | 3160 | 2000 | <4 |  |  |  |  |  |  |  |  | 
18 | Cc1ncc(-c2ccnc(Nc3ccc(S(C)(=O)=O)cc3)n2)n1C(C)C [NEU-985, AZD543821] |  | 31.6 | 4.9 | 398 | 2510 | 1.58 | 1260 | 1000 | 1260 | <4 |  |  |  |  |  |  |  |  | 
19 | O=C1NC(=O)C(c2ccccc2[N+](=O)[O-])=C1Nc1ccc(O)c(Cl)c1 [NEU-986, SB 41528622] |  |  | <4.4 |  |  |  |  |  |  | 4.2 |  |  |  |  |  |  |  |  | 
20 | CN1CC[C@H](c2c(O)cc(O)c3c(=O)cc(-c4ccccc4Cl)oc23)[C@H](O)C1 [NEU-987, flavopiridol] |  | 158 | < 4.4 | 398 | 3160 | 12.6 | 2000 | 2000 | 1580 | < 4 |  |  |  |  |  |  |  |  | 
21 | Nc1cccc(-c2cc3c(Oc4cccc(O)c4)ncnc3[nH]2)c1 [NEU-989, TWS11925] |  |  | <4.4 |  |  |  |  |  |  | 4.4 |  | 6.0 | 4.7 | <4.8 | < 4.3 | 5.0 | 4.7 | 5.1 | 
22 | Cn1cc(C2=C(c3ccc(Cl)cc3Cl)C(=O)NC2=O)c2ccccc21 [NEU-990, SB 21676322] |  | > 3160 | <4.4 | 2510 | > 15800 | > 50.1 | > 20000 | > 20000 | > 20000 | <4 |  |  |  |  |  |  |  |  | 
23 | O=c1sn(-c2cccc3ccccc23)c(=O)n1Cc1ccccc1 [NEU-991, tideglusib] |  | > 3160 | <4.4 | 316 | > 15800 | 20 | 25100 | 25100 | 20000 | 4.1 |  |  |  |  |  |  |  |  | 
24 | CC(C)CC(=O)Nc1[nH]nc2c1CN(C(=O)C1CCN(C)CC1)C2(C)C [NEU-1007, PHA-79388727] |  | 2000 | <4.4 | > 25100 | > 15800 | > 50.1 | 2000 | 2510 | 2510 | <4 |  |  |  |  |  |  |  |  | 
25 | COc1ccc2c(c1)[nH]c1c(C)nccc12 [NEU-1049, harmine] |  | > 3160 | <5.1 | 1260 | 1260 | 15.8 | > 20000 | > 20000 | > 20000 | <4 |  |  |  |  |  |  |  |  | 
26 | Nc1nc(N)nc(Nc2ccc([As]3SCC(CO)S3)cc2)n1 (centres unmarked) [melarsoprol] |  |  |  |  |  |  |  |  |  |  |  |  |  |  |  |  |  |  | ≥ 5
